Laboratory results as given in ChEMBL document CHEMBL2169860, “Design of a hypoxia-activated prodrug inhibitor of O6-alkylguanine-DNA alkyltransferase” (Bioorg Med Chem Lett, 2012).
pIC50: −log10 of the molar value. Calls of active or inactive are those of the source. No cut-off for these calls is given here.

What was measured:
[1] = tested on: EMT6; experiment: Cytotoxicity against mouse EMT6 cells expressing human AGT assessed as cell survival fraction at 2 uM after 18 hrs by clonogenic assay; format: cell-based; conditions: emt6, 18 h
[2] = biological target: T1, Methylated-DNA--protein-cysteine methyltransferase (Homo sapiens, UniProt P16455)
T1 sequence (P16455 whole entry): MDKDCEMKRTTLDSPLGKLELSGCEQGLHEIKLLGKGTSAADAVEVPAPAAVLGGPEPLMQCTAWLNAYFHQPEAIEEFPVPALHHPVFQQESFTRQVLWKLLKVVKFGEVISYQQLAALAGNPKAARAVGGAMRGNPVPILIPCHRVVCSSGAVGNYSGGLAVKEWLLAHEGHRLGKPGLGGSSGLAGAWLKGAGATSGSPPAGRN
Description: Inhibition of AGT in human HL60 cells assessed as AGT levels using [3H]AGT after 2 hrs

[3] = tested on: EMT6; experiment: Potentiation of laromustine-induced cytotoxicity against mouse EMT6 cells expressing human AGT assessed as cell survival fraction at 2 uM treated 2 hrs before laromustine addition measured after 18 hrs by clonogenic assay; format: functional, cell-based
[4] = tested on: EMT6; experiment: Stability of the compound in mouse EMT6 cells assessed as parent compound level under hypoxic condition at 200 uM after 1 hr by HPLC analysis; format: ADME, cell-based; conditions: emt6, 1 h
[5] = tested on: EMT6; experiment: Stability of the compound in mouse EMT6 cells assessed as parent compound level under oxic condition at 200 uM after 1 hr by HPLC analysis; format: ADME, cell-based; conditions: emt6, 1 h
[6] = tested on: EMT6; experiment: Prodrug activation in mouse EMT6 cells assessed as 6-((3-((dimethylamino)methyl)benzyl)oxy)-9H-purin-2-amine level under hypoxic condition at 200 uM after 1 hr by HPLC analysis; format: cell-based; conditions: emt6, 1 h
[7] = tested on: EMT6; experiment: Prodrug activation in mouse EMT6 cells assessed as 6-((3-((dimethylamino)methyl)benzyl)oxy)-9H-purin-2-amine level under oxic condition at 200 uM after 1 hr by HPLC analysis; format: cell-based; conditions: emt6, 1 h

SMILES | Activity [1] | pIC50 [2] | Activity [3] | other results
CC(=O)NCc1cccc(COc2nc(N)nc3[nH]cnc23)c1 | Non-toxic | 7.07 | Active | –
Nc1nc(OCc2ccccc2)c2[nH]cnc2n1 [6-O-BENZYLGUANINE] | Non-toxic | – | – | –
CN(C)Cc1cccc(COc2nc(N)nc3[nH]cnc23)c1 | Non-toxic | 7.60 | Active | Stability [4]: 12.3 µM; Stability [5]: 0.2 µM
NCc1cccc(COc2nc(N)nc3nc[nH]c23)c1 | Non-toxic | – | Active | –
Nc1nc(OCc2ccccc2)c2nc[nH]c2n1 | – | – | Active | –
CN(C)Cc1cccc(COc2nc(NC(=O)OC(C)(C)c3ccc([N+](=O)[O-])cc3)nc3[nH]cnc23)c1 | – | – | – | Drug metabolism [6]: 149.6 µM; Drug metabolism [7]: 195.5 µM
